Experimental data taken from US12714706B2, “Methods of treating small cell lung cancer with lurbinectedin formulations” (PHARMA MAR, S.A., priority 2019, dated 2026).

Test system: advanced solid tumors
Test: Lurbinectedin plus irinotecan trial: efficacy per tumor type (RECIST v1.1, PFS, OS)
Type: in vivo, human
Conditions: all doses
Source text: Secondary outcome measures included safety evaluation, peak plasma concentration (Cmax), area-under-the plasma concentration versus time curve (AUC), volume of distribution based on the terminal half-life (Vz), volume of distribution at steady state (Vss), clearance (CL), half-life (t½), evaluation of antitumor response (RECIST v1.1, start of treatment until PD, other antitumor therapy, death or until 12 months after the inclusion of the last evaluable patient in the study (end of study), whichever occurs first), progression-free survival (from the date of first infusion of study treatment to the date of progression or death or until 12 months after end of study, whichever occurs first), and overall survival (from the date of first infusion to study treatment to the date or death or until 12 months after end of study, whichever occurs first).
Encouraging activity has been observed in patients with SOLO, including some cases as third line treatment. Signals of activity were also observed in endometrial carcinoma and soft tissue sarcoma (STS) and glioblastoma (GBM). Consequently, a Phase II expansion at the RD to further explore efficacy and safety in SOLO, GBM, STS, and endometrial carcinoma. A total of […] patients were treated at the RD, including n=15 SOLO, n=11 endometrial cancer, n=10 STS, and n=20 GBM patients.

Question: Which results are given for `COc1ccc2[nH]c3c(c2c1)CCN[C@]31CS[C@@H]2c3c(OC(C)=O)c(C)c4c(c3[C@H](COC1=O)N1[C@@H]2[C@H]2c3c(cc(C)c(OC)c3O)C[C@@H]([C@@H]1O)N2C)OCO4` [lurbinectedin, Lurbinectedin]?
Answer: CBR (ORR + SD >4 mo) (Endometrial (n = 10 evaluable)): 60%; DCR (ORR + SD) (Endometrial (n = 10 evaluable)): 100%; Median DoR (Endometrial (n = 10 evaluable)): 4.6 mo; Median PFS (Endometrial (n = 10 evaluable)): 7.1 mo; ORR* (PR) (Endometrial (n = 10 evaluable)): 3 (30) n(%); PFS rate at 6 mo (Endometrial (n = 10 evaluable)): 50%; CBR (ORR + SD >4 mo) (GBM (n = 16 evaluable)): 18.8%; DCR (ORR + SD) (GBM (n = 16 evaluable)): 43.8%; Median PFS (GBM (n = 16 evaluable)): 1.4 mo; ORR* (PR) (GBM (n = 16 evaluable)): 1 (6.3) n(%); PFS rate at 6 mo (GBM (n = 16 evaluable)): 7.1%; CBR (ORR + SD >4 mo) (SCLC (n = 13 evaluable)): 76.9%; DCR (ORR + SD) (SCLC (n = 13 evaluable)): 84.6%; Median DoR (SCLC (n = 13 evaluable)): 4.6 mo; Median PFS (SCLC (n = 13 evaluable)): 4.3 mo; ORR* (PR) (SCLC (n = 13 evaluable)): 9 (69.2) n(%); PFS rate at 6 mo (SCLC (n = 13 evaluable)): 36.3%; CBR (ORR + SD >4 mo) (STS (n = 10 evaluable)): 40%; DCR (ORR + SD) (STS (n = 10 evaluable)): 80%; Median PFS (STS (n = 10 evaluable)): 2.6 mo; ORR* (PR) (STS (n = 10 evaluable)): 0 n(%); PFS rate at 6 mo (STS (n = 10 evaluable)): 33.8%
